This note sets out measurements from patent US20210220450A1, “TREATMENT OF AN IOP CONDITION” (The Research Foundation for The State University of New York, priority 2013, published 2021).

Assay [1] concerns sheep of the Coriedale breed. The experiment in a line: Steroid-induced IOP elevation in sheep, tPA injected into the anterior chamber (Example 9). In kind it is in vivo. The protocol:
Methods. Lyophilized tPA, obtained as Acetilyse® from Boehringer Ingelheim S. A. (Buenos Aires) containing arginine, was used. Five sheep of the Coriedale breed were selected. Initially all eyes received instillation of 1% prednisolone 3 times/day for 10 days to elevate their IOP from 10 mm Hg to about 23 mm Hg. Then, 0.0001 μg was injected into one of the eyes and its effect was followed for up to 55:00 hrs while the instillation of prednisolone continued in both eyes. The same protocol was implemented for the 0.001 and 0.01 μg amounts (after extended washout) in the contra lateral eyes. Arginine, which is associated with 0.01 ug tPA, was injected alone and had no effect.

Assay [2] has as its system Mmp-2, Mmp-9, Mmp-13. The experiment in a line: Mmp expression in protein treated PlatKO eyes (Example 14). In kind it is in vivo, mouse. To be noted: vs BSA treated eyes. The method, then: Tissue collection and confirmation of transgene expression: After outflow facility determination in adenovirus treated mice, mCherry expression in the TM was determined in all AdPLAT and AdPLATNE injected eyes. The eyes were dissected on ice to isolate a rim of tissue containing the TM by removing most of the iris and ciliary body. […] After observation, dissected rims were immediately immersed in RNA stabilizing agent (RNAlater, Invitrogen by ThermoFisher Scientific, Waltham, Mass., USA) and frozen. For TM tissue collection following protein treatment, all eyes were flash frozen in liquid nitrogen and subsequently dissected on ice to obtain the angle ring containing the TM tissues as previously described^43. Dissected TM tissues were immersed in RNAlater solution and then snap-frozen and stored at −80° C. until RNA extraction.
RNA isolation and quantitative real time PCR: Tissue collected was pooled (four eyes) and homogenized in TRIzol reagent (Life Technologies, Carlsbad, Calif., USA). RNA was isolated per the manufacturer's instructions and resuspended in nuclease-free water. RNA concentration was determined with a Nanodrop ND-1000 Spectrophotometer (ThermoFisher Scientific, Waltham, Mass., USA). cDNA was synthesized by using High-Capacity cDNA Reverse Transcription Kit (Applied Biosystems, Waltham, Mass., USA) according to manufacturer's protocol. Quantitative real-time PCR (qRT-PCR) was performed by using Green-2-Go qPCR Mastermix-ROX (BioBasic, Amherst, N.Y., USA) on a QuantStudio 6 Flex thermal cycler (Applied Biosystems, Carlsbad, Calif., USA).
mRNA expression of sheep PLAT and mouse Mmp-2, Mmp-9, and Mmp-13 in angle ring tissues was determined. Primers were designed by using Primer-BLAST (https://www.ncbi.nlm.nih.gov/tools/primer-blast/index.cgi?LINK_LOC=BlastHome; in the public domain) and their specificity was confirmed by the presence of a single band of the expected size on agarose gel electrophoresis. […] The relative fold change was calculated by using the ΔΔCt method. […]

The test system of assay [3] is Mmp-2, Mmp-9, Mmp-13. The experiment in a line: Mmp expression in Tg-MYOCY437H angle ring tissue (Example 19). It counts as in vivo, mouse. To be noted: vs BSA treated eyes. The method, then: Eyes were flash frozen in liquid nitrogen after outflow facility determination and subsequently dissected on ice to obtain the angle ring tissues containing the TM, as previously described (Kumar, Shah et al. 2013). Dissected TM tissues were immersed in RNAlater solution (Invitrogen, Waltham, Mass., USA) and then snap-frozen and stored at −80° C. until RNA extraction. Tissue collected was pooled (four eyes) and homogenized in TRIzol reagent for RNA isolation, per manufacturer's instructions (Life Technologies, Carlsbad, Calif., USA). RNA concentration was determined with a Nanodrop ND-1000 Spectrophotometer (Thermo Scientific, Wilmington, Del., USA). cDNA was synthesized by using High-Capacity cDNA Reverse Transcription Kit (Applied Biosystems, Waltham, Mass., USA) according to manufacturer's protocol. Quantitative real-time PCR (qRT-PCR) was performed by using Green-2-Go qPCR Mastermix-ROX (Bio Basic, Amherst, N.Y., USA) on a QuantStudio 6 Flex thermal cycler (Applied Biosystems, Carlsbad, Calif., USA). mRNA expression of Plat, Plau, Pai-1, Mmp-2, Mmp-9, and Mmp-13 in angle ring tissues was determined. Primers were designed by using Primer-BLAST (https://www.ncbi.nlm.nih.gov/tools/primer-blast/index.cgi?LINK_LOC=BlastHome; in the public domain); primer sequences are listed in Table 2. Primer specificity was confirmed by agarose gel electrophoresis and multiple-sized amplification products were absent on inspection of melting curves. Target mRNA expression values were normalized to the expression levels of Rps11 (ribosomal protein S11). The relative fold change was calculated by using the ΔΔCt method (Hu, Wang et al. 2015). Outliers identified via the Thompson Tau test were removed from analysis.

Consider tissue plasminogen activator [tPA], for which the “effect on IOP” value is on record as “had no effect” in assay [1] (0.0001 μg into the AC, IOP 23.0 mm Hg at 6:00 and 30:00 hrs); “reduction in IOP” in assay [1] (single dose of 1 μg of tPA injected intracamerally). The IOP is reported as 18.6 mmHg in assay [1] (0.001 μg into the AC, 6:00 hr, from 23.1); 22.3 mm Hg in assay [1] (0.001 μg into the AC, 30:00 hr); 14.2 mm Hg in assay [1] (0.01 μg into the AC, 6:00 hrs, baseline 23.4); 19.0 mm Hg in assay [1] (0.01 μg into the AC, 30:00 hrs); 20.9 mm Hg in assay [1] (0.01 μg into the AC, 48:00 hrs); 22.3 mm Hg in assay [1] (0.01 μg into the AC, 55:00 hrs). Besides, the Mmp-2 expression result with Mmp-2, Mmp-9, Mmp-13 [2] is on record as “not significantly different”; with Mmp-2, Mmp-9, Mmp-13 [3] (2 days), “no significant difference”; in the assay with Mmp-2, Mmp-9, Mmp-13 [3] (5 days) it was “no significant difference”. The Mmp-9 expression entry with Mmp-2, Mmp-9, Mmp-13 [2] is on record as “significant upregulation”; in the assay with Mmp-2, Mmp-9, Mmp-13 [3] (2 days), “not detected”; with Mmp-2, Mmp-9, Mmp-13 [3] (5 days), “higher”. For the same substance, the Mmp-13 expression entry with Mmp-2, Mmp-9, Mmp-13 [2] is recorded as “significant upregulation”; in the assay on Mmp-2, Mmp-9, Mmp-13 [3] (2 days), “significantly higher”; with Mmp-2, Mmp-9, Mmp-13 [3] (5 days) it was “significantly higher”.
